Experimental data from ChEMBL document CHEMBL2346516, “Sponge-derived acetylenic alcohols, petrosiols, inhibit proliferation and migration of platelet-derived growth factor (PDGF)-induced vascular smooth muscle cells” (Bioorg Med Chem, 2013).
Values belong to the compound of their own block, whether it stands above or below them. Active and inactive are the calls of the source. The calls are words filed in the database; no cut-off is given here.

Key:
[1] = molecular target: Platelet-derived growth factor receptor beta (Homo sapiens) (UniProt P09619); test: Inhibition of PDGFRbeta in human HASMC assessed as decrease in PDGF-induced ERK1/2 phosphorylation at 1 to 4 uM after 5 to 15 mins by Western blot analysis
[2] = molecular target: Platelet-derived growth factor receptor beta (Homo sapiens) (UniProt P09619); test: Inhibition of PDGFRbeta in human HASMC assessed as decrease in PDGF-induced PLC-gamma1 phosphorylation at 1 to 4 uM after 5 to 15 mins by Western blot analysis
HASMC [3] = test: Inhibition of PDGF-induced cyclin D1 expression in human HASMC at 2 to 4 uM after 24 hrs by Western blot analysis; assay type: functional, cell-based
HASMC [4] = test: Inhibition of PDGF-induced cyclin E expression in human HASMC at 2 to 4 uM after 24 hrs by Western blot analysis; assay type: functional, cell-based
HASMC [5] = test: Cell cycle arrest in PGDF-stimulated human HASMC assessed as proportion of cells in S phase at 2 uM treated for 6 hrs prior to incubation with PDGF measured after 24 hrs by propidium iodide staining based flow cytometry (reference value: 20.8%); assay type: functional
HASMC [6] = test: Inhibition of PDGF-induced actin filament dissociation in human HASMC at 2 to 4 uM after 24 hrs by Rhodamine-Phalloidin staining based fluorescence microscopy; assay type: functional, cell-based
HASMC [7] = test: Inhibition of PDGF-induced DNA synthesis in human HASMC assessed as decrease in [3H]thymidine incorporation after 20 hrs by microplate scintillation analysis; assay type: functional, cell-based
HASMC [8] = test: Inhibition of PDGF-induced human HASMC migration at 4 uM after 24 hrs by modified boyden chamber analysis; assay type: functional, cell-based
HASMC [9] = test: Inhibition of PDGF-induced CDK2 expression in human HASMC at 2 to 4 uM after 24 hrs by Western blot analysis; assay type: functional, cell-based
HASMC [10] = test: Cytotoxicity against human HASMC assessed as effect on cell vaibility at 0.5 to 4 uM after 24 hrs by MTT assay; assay type: cell-based
HASMC [11] = test: Increase in p21 expression in PDGF-stimulated human HASMC at 2 to 4 uM after 24 hrs by Western blot analysis; assay type: functional, cell-based
HASMC [12] = test: Inhibition of PDGF-induced human HASMC proliferation after 24 hrs by trypan blue dye exclusion assay; assay type: functional, cell-based
HASMC [13] = test: Cytotoxicity against human HASMC assessed as effect on cell migration at 4 uM after 24 hrs by modified boyden chamber analysis; assay type: cell-based
HASMC [14] = test: Cell cycle arrest in PGDF-stimulated human HASMC assessed as proportion of cells in S phase at 1 uM treated for 6 hrs prior to incubation with PDGF measured after 24 hrs by propidium iodide staining based flow cytometry (reference value: 20.8%); assay type: functional
[15] = molecular target: Platelet-derived growth factor receptor beta (Homo sapiens) (UniProt P09619); test: Inhibition of PDGF-induced PDGFRbeta phosphorylation in human HASMC after 5 to 15 mins by Western blot analysis
HASMC [16] = test: Increase in p27 expression in PDGF-stimulated human HASMC at 2 to 4 uM after 24 hrs by Western blot analysis; assay type: functional, cell-based
HASMC [17] = test: Cell cycle arrest in PGDF-stimulated human HASMC assessed as proportion of cells in S phase at 4 uM treated for 6 hrs prior to incubation with PDGF measured after 24 hrs by propidium iodide staining based flow cytometry (reference value: 20.8%); assay type: functional
HASMC [18] = test: Inhibition of PDGF-induced CDK4 expression in human HASMC at 2 to 4 uM after 24 hrs by Western blot analysis; assay type: functional, cell-based
[19] = molecular target: Platelet-derived growth factor receptor beta (Homo sapiens) (UniProt P09619); test: Inhibition of PDGFRbeta in human HASMC assessed as decrease in PDGF-induced Akt phosphorylation at 1 to 4 uM after 5 to 15 mins by Western blot analysis

Chain of Platelet-derived growth factor receptor beta (Homo sapiens) (P09619 whole entry): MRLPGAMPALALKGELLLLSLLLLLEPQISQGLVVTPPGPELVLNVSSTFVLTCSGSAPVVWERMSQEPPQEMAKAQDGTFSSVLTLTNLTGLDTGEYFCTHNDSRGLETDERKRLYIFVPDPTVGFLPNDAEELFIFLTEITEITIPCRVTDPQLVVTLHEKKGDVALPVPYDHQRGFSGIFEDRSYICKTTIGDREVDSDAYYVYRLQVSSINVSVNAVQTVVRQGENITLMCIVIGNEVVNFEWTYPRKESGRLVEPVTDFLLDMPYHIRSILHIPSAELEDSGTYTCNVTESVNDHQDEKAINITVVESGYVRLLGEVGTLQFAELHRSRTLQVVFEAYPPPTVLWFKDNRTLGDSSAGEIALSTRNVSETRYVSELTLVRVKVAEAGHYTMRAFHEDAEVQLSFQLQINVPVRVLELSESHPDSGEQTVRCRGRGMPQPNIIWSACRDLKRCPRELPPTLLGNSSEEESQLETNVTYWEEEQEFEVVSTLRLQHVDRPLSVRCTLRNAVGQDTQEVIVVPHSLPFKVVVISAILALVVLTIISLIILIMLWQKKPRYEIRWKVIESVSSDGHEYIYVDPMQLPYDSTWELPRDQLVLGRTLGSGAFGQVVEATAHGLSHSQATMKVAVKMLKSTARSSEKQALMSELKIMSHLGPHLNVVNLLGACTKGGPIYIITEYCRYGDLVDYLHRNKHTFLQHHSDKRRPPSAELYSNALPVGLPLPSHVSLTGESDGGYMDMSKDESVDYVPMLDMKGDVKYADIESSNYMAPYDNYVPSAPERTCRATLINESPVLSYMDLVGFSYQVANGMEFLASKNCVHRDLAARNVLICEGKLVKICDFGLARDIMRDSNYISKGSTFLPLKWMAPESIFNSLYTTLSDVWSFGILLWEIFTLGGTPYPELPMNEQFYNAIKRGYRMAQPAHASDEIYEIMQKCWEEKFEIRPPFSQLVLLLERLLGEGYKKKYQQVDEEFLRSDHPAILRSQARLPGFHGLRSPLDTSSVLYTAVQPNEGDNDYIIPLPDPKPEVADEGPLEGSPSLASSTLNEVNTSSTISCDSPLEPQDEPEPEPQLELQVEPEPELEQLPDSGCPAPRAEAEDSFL

Structure (SMILES): CCCCCCCC/C=C\CCCCCCC[C@H](O)[C@@H](O)[C@H](O)C#CC#CCO [PETROSIOL A]
inhibition [1]: Active
inhibition [2]: Active
inhibition (HASMC [3]): Active
inhibition (HASMC [4]): Active
Activity (HASMC [5]): 10.1%
inhibition (HASMC [6]): Active
IC50 (HASMC [7]): 730 nM
inhibition (HASMC [7]): Dose-dependent effect
inhibition (HASMC [8]): Active
inhibition (HASMC [9]): Active
Activity (HASMC [10]): Non-toxic
Activity (HASMC [11]): Active
IC50 (HASMC [12]): 1000 nM
inhibition (HASMC [12]): Dose-dependent effect
Activity (HASMC [13]): Non-toxic
Activity (HASMC [14]): 17.7%
inhibition [15]: Dose-dependent effect
Activity (HASMC [16]): Active
Activity (HASMC [17]): 7.5%
inhibition (HASMC [18]): Active
inhibition [19]: Active

Structure (SMILES): CC(C)CCCCCC/C=C\CCCCCCC[C@H](O)[C@@H](O)[C@H](O)C#CC#CCO [PETROSIOL B]
IC50 (HASMC [7]): 710 nM
inhibition (HASMC [7]): Dose-dependent effect

Structure (SMILES): C#C/C=C\CCCCCCCCCC/C=C\CCCCCCC[C@H](O)[C@@H](O)[C@H](O)C#CC#CCO [PETROSIOL C]
IC50 (HASMC [7]): 720 nM
inhibition (HASMC [7]): Dose-dependent effect

The next lines start with results.

IC50 (HASMC [7]): 690 nM
Structure (SMILES): CCCCCCCCC/C=C\CCCCCCC[C@H](O)[C@@H](O)[C@H](O)C#CC#CCO [PETROSIOL D]
inhibition (HASMC [7]): Dose-dependent effect

IC50 (HASMC [7]): 1100 nM
Structure (SMILES): CC(C)CCCCCC/C=C\CCCCCCCCC[C@@H](O)C#CC#CCO [STRONGYLODIOL C]
inhibition (HASMC [7]): Dose-dependent effect

IC50 (HASMC [7]): 2200 nM
Structure (SMILES): CC(C)CCCCCCC#CCCCCCCCCC[C@@H](O)C#CC#CCO [STRONGYLODIOL D]
inhibition (HASMC [7]): Dose-dependent effect
